Measurements: the NIST ThermoML archive (doi:10.1021/je500448j)
± gives the expanded uncertainty stated by the source.

Conditions: 298.15 K; 101.33 kPa; Liquid; Vibrating tube method

Nc1ccccc1 [aniline]
mass density: 1017.39 ± 0.09 kg/m3

CN(C)c1ccccc1 [N,N-dimethylaniline]
mass density: 952.05 ± 0.23 kg/m3
